In one series the test system is human hepatocytes. Briefly: Metabolic stability in Hμrel human hepatocyte co-culture assay. The conditions noted are these: for Metabolic turnover: human hepatocytes. The series is classed as in vitro ADME.
The subject of the next series is human plasma protein. Briefly: Plasma binding of 5-MIAA. The series is classed as in vitro ADME. To be noted: estimated from fu and glomerular filtration rate 90-120 ml/min.
Series [1] is described as follows: Pharmacokinetics of 5-MeO-DMT and bufotenine after inhalation. In kind it is in vivo, human.
The next series relates to patients with PPD. To be noted: cited from earlier work.
For series [2] the following is noted: rat; cited from earlier work.

Regarding “5-Methoxyindole acetic acid [5-Methoxyindole acetic acid (5-MIAA)]”, in the series with human hepatocytes, the Metabolic turnover result is “low metabolic turnover” and the “Disappearance with stromal cell controls” value is on record as “no disappearance”. In addition, the “Remaining abundance after 72 h” value in the series with human hepatocytes (in the presence of hepatocytes, 1 and 10 μM) was 75-82%. For the same compound, the “Time until removed from circulation for urinary excretion” value in the series on human plasma protein is 1 to 2 h.

Take `CN(C)CCc1c[nH]c2ccc(O)cc12` [Bufotenine (5-OH-DMT), Bufotenine]: the “Detection of bufotenine in human serum” value in series [1] (15 minutes after administration of 5-MeO-DMT) is listed as “In no case is it detected”; in series [1] (after administration of 5-MeO-DMT), “barely detected”. Moreover, in series [1] (after inhaled 5-MeO-DMT), the “Samples with bufotenine concentration above LLOQ (25 pg/ml)” value is given as “Only in few samples”.

Consider `COc1ccc2[nH]cc(CCO)c2c1` [5-Methoxyindole-3-ethanol], for which the “Relative LC/MS peak area remaining” value in the series on human hepatocytes (1 μM Stromal cells, 4 h) is on record as 97%; in the series on human hepatocytes (1 μM Stromal cells, 8 h), 107%; in the series on human hepatocytes (1 μM Stromal cells, 24 h), 94%; in the series with human hepatocytes (1 μM Stromal cells, 48 h), 102%; with human hepatocytes (1 μM Stromal cells, 72 h), 104%; in the series with human hepatocytes (10 μM Stromal cells, 4 h), 99%. Besides, the “Relative LC/MS peak area remaining” value came out at 105% in the series on human hepatocytes (10 μM Stromal cells, 8 h); 86% in the series on human hepatocytes (10 μM Stromal cells, 24 h); 98% with human hepatocytes (10 μM Stromal cells, 48 h); 104% with human hepatocytes (10 μM Stromal cells, 72 h). For the same compound, in the series on human hepatocytes, the Metabolic turnover entry was “high metabolic turnover”. Besides, the “Disappearance with stromal cell controls” value in the series on human hepatocytes is recorded as “no disappearance”.

As for `CC(=O)[C@H]1CC[C@H]2[C@@H]3CC[C@H]4C[C@H](O)CC[C@]4(C)[C@H]3CC[C@]12C` [brexanolone], the HAM-D scores result with patients with PPD (one phase 3 trial, 30 days after initiation of infusion) is given as “significantly reduced”. In addition, the “Efficacy (HAM-D)” value in the series with patients with PPD (other phase 3 trial) is on record as “failed to show efficacy beyond 7 days”.

Take `COc1ccc2[nH]cc(CC[N+](C)(C)[O-])c2c1` [5-MeO-DMT-N-oxide]: the Excretion result in series [2] was “rapid excretion”.

Values taken from patent US20250205200A1, “5-METHOXY-N,N-[…][…] THE TREATMENT OF […]” (GH RESEARCH IRELAND LIMITED, priority 2022, published 2025).
